Assay results taken from patent US20080096989A1, “Flame Retardant Expanded Polystyrene Foam Compositions” (ALBEMARLE CORPORATION, priority 2004, published 2008).

Experiment: Thermal HBr Measurement Test (thermal stability)
Type: physicochemical
Details: heated about 15 minutes at about 220° C. under nitrogen; average of duplicate; lower = more thermally stable
Procedure: The thermal stability of N,2-3-dibromopropyl-4,5-dibromohexahydrophthalimde (“compound (I)”) used in accordance with the present invention was evaluated using the Thermal HBr Measurement Test.
First, a sample of from about 0.5 to about 1.0 g flame retardant was weighed into a three neck 50 mL round bottom flask. Teflon tubing was then attached to one of the openings in the flask. Nitrogen was fed into the flask through the Teflon tubing at a flow rate of about 0.5 SCFH. A small reflux condenser was attached to another opening on the flask. The third opening was plugged. An about 50 vol % solution of glycol in water at a temperature of about 85° C. was run through the reflux condenser. Viton tubing was attached to the top of the condenser and to a gas-scrubbing bottle. Two more bottles were attached in series to the first. All three bottles had about 90 mL of about 0.1 N NaOH solutions. After assembling the apparatus, the nitrogen was allowed to purge through the system for about 2 minutes. The round bottom flask was then placed into an oil bath at about 220° C. and the sample was heated for about 15 minutes. The flask was then removed from the oil bath and the nitrogen was allowed to purge for about 2 minutes. The contents of the three gas scrubbing bottles were transferred to a 600 mL beaker. The bottles and viton tubing were rinsed into the beaker. […]

SMILES: O=C1C2CC(Br)C(Br)CC2C(=O)N1CC(Br)CBr (stereo not shown) [compound I, N,2-3-dibromopropyl-4,5-dibromohexahydrophthalimde]
- HBr (ppm): 2,058 ppm
